The values that follow come from patent publication US20240261271A1, “APPLICATION OF HYDRONIDONE IN PREPARATION OF DRUG FOR TREATING OR PREVENTING CHRONIC HEPATITIS B WITH LIVER FIBROSIS” (priority 2021, published 2024).

Data set [1] concerns liver stiffness in chronic hepatitis B with hepatic fibrosis. In words: Phase II clinical study: liver transient elastography LSM (kPa). Conditions: FAS, after 52 weeks of treatment. In kind it is in vivo, human. The method, then: (§1) This is a randomized, double-blind, placebo-controlled, multicenter, and dose-finding phase II clinical study with foundational treatment. In the clinical trial, three different dose test groups and a placebo control group were set on the basis of the entecavir capsule antiviral treatment, and the planned sample amount of each group was 60 cases, totaling 240 cases. The three dose test groups were 180 mg group, 270 mg group, and 360 mg group, respectively. The proportion of each test group to the control group was 1:1:1:1, and the cases were distributed randomly. […] Negative conversion rate of HBV DNA after treatment between the groups was compared using CMH-λ2 test or Fisher's exact probability method. • 2. Liver tissue elasticity reduction after treatment between the groups was compared using Kruskal-Wallis H test. • 3. […] The recovery rate of the liver function index after treatment between the groups was compared using CMH-λ2 test or Fisher's exact probability method, and the found values of each index between the groups were compared using variance analysis or Kruskal-Wallis H test.

The test system of data set [2] is liver tissue inflammation. In words: Phase II clinical study: liver tissue inflammation grading. Format: in vivo, human. The note with it: after 52 weeks of treatment. As for the experimental part: as §1
Data set [3] relates to HBV DNA. In words: Phase II clinical study: negative conversion rate of HBV DNA. Format: in vivo, human. The note with it: for proportion of the subjects with HBV DNA substantially converted to negative: after 52 weeks of treatment, with entecavir. The method, then: as §1
Data set [4] has as its system ALT (alanine aminotransferase). In words: Phase II clinical study: ALT index of liver function. Format: in vivo, human. Conditions: FAS, after 52 weeks of treatment. The method, then: as §1
Data set [5] is described as follows: Phase II clinical study: safety (adverse events, adverse effects, SAE). In kind it is in vivo. The note with it: 180, 270 and 360 mg groups vs placebo, 52 weeks, adverse effects and SAE incidence rates not statistically different. From the text: Safety indexes: vital signs, laboratory indexes, adverse events/adverse effects, and the like.
All cases that had been randomized, used the study drug at least once, and had safety evaluation data after medication, constitute the safety population for this study.
Safety indexes include adverse events/adverse effects, laboratory indexes, physical examinations, and the like. • 1. The incidence rates of the adverse events/adverse effects of each group were compared using CMH-λ2 test or Fisher's exact probability method, and the relative frequency and severity of all the adverse events in the test, the relationship with the drug, the treatment, the outcome, and the like were described in a table. • 2. The physical examinations were described in a table for normal/abnormal changes after the experiment. • 3. The laboratory indexes were described in a table for normal/abnormal changes, abnormal exacerbation, and the like before and after the test, and the relationship between the laboratory indexes and the test drug was evaluated. The quantitative indexes were statistically described for each time point measured, the variation inside the groups was compared using Wilcoxon signed rank test, and the variation between the groups was compared using Kruskal-Wallis H test.

As to `Cc1ccc(=O)n(-c2ccc(O)cc2)c1` [hydronidone], the “mean decline rate (standard deviation) of the liver transient elastography LSM (kPa)” value in data set [1] (180 mg group) turned out to be 18.30%; in data set [1] (270 mg group) it was 24.62%; in data set [1] (360 mg group), 18.98%. Also, the “proportion of the subjects with the liver tissue inflammation ameliorated” value in data set [2] (180 mg group) was 21 (58.33%) n(%); in data set [2] (270 mg group), 20 (57.14%) n(%); in data set [2] (360 mg group), 19 (55.88%) n(%). Also, the “proportion of the subjects with HBV DNA substantially converted to negative” value in data set [3] (180 mg group) is listed as 34 (94.44%) n(%); in data set [3] (270 mg group), 34 (97.14%) n(%); in data set [3] (360 mg group), 32 (94.12%) n(%). Also, the “influence on the reduction of the virus titer by entecavir and the ALT recovery” value in data set [3] (each hydronidone test group, 52 weeks) is recorded as “no influence”. For the same molecule, the “mean (standard deviation) of variation of the ALT index compared with the baseline” value in data set [4] (180 mg group) is 44.71 (53.50); in data set [4] (270 mg group) it was 66.47 (78.13); in data set [4] (360 mg group) it was 43.58 (59.87). For the same molecule, the figures for the “proportion of the subjects with ALT indexes determined to turn normal from abnormal (baseline)” value in data set [4] (180 mg group), in data set [4] (270 mg group) and in data set [4] (360 mg group) were 15 (78.95%) n(%), 18 (85.71%) n(%) and 16 (88.89%) n(%), respectively. In addition, the safety entry in data set [5] is listed as “good”.
